Experimental data as given in patent US7566444B2, “Versatile hydrophilic dyes” (Mallinckrodt Inc., priority 2000, dated 2009).

Assays:
[1] = Monitoring of the blood clearance profile of peptide-dye conjugates; type: in vivo; settings: rat ear; tail vein bolus; 830 nm after excitation at 780 nm
Source text: A laser of appropriate wavelength for excitation of the dye chromophore was directed into one end of a fiber optic bundle and the other end was positioned a few millimeters from the ear of a rat. A second fiber optic bundle was also positioned near the same ear to detect the emitted fluorescent light and the other end was directed into the optics and electronics for data collection. An interference filter (IF) in the collection optics train was used to select emitted fluorescent light of the appropriate wavelength for the dye chromophore.
Sprague-Dawley or Fischer 344 rats were used in these studies. The animals were anesthetized with urethane administered via intraperitoneal injection at a dose of 1.35 g/kg body weight. After the animals had achieved the desired plane of anesthesia, a 21 gauge butterfly with 12″ tubing was placed in the lateral tail vein of each animal and flushed with heparinized saline. The animals were placed onto a heating pad and kept warm throughout the entire study. The lobe of the left ear was affixed to a glass microscope slide to reduce movement and vibration.
Incident laser light delivered from the fiber optic was centered on the affixed ear. Data acquisition was then initiated, and a background reading of fluorescence was obtained prior to administration of the test agent. For Cytates 1 or 2, the peptide-dye conjugate was administered to the animal through a bolus injection, typically 0.5 to 2.0 mL, in the lateral tail vein. This procedure was repeated with several dye-peptide conjugates in normal and tumor-bearing rats. Representative profiles as a method to monitor blood clearance of the peptide-dye conjugate in normal and tumor-bearing animals are shown in FIGS. 12 to 16. The data were analyzed using a standard sigma plot software program for a one-compartment model.

[2] = Imaging of individual organs removed from CA20948 tumor-bearing rat; type: in vivo
Protocol: (§1) Cytate 1 was evaluated in the CA20948 Lewis rat model. […] At 19 hours post injection the animal was again imaged (FIG. 9B). […] As a control, the organs were imaged again (FIG. 10A) and the image was compared with that of the same tissues in the uninjected rat (FIG. 10B).
Individual organs were removed and imaged.

[3] = tested on: pancreatic acinar carcinoma expressing the SST-2 receptor (CA20948); assay: In vivo fluorescence imaging of rat pancreatic acinar carcinoma (CA20948); settings: for uptake (fluorescence) in tumor at 45 minutes: 45 minutes post injection, rats with CA20948 tumor
Source text: (§2) A non-invasive in vivo fluorescence imaging apparatus was employed to assess the efficacy of contrast agents developed for tumor detection in animal models. A LaserMax Inc. laser diode of nominal wavelength 780 nm and nominal power of 40 mW was used. The detector was a Princeton Instruments model RTE/CCD-1317-K/2 CCD camera with a Rodenstock 10 mm F2 lens (stock #542.032.002.20) attached. An 830 nm interference […] (CVI Laser Corp., part # F10-830-4-2) was mounted in front of the CCD input lens such that only emitted fluorescent light from the contrast agent was imaged. Typically, an image of the animal was taken pre-injection of contrast agent. This image was subsequently subtracted (pixel by pixel) from the post injection images. However, the background subtraction was […] done once the animal had been removed from the sample area and returned at a later time for images taken several hours post injection.
The imaging apparatus and the procedure used are described in Example 12. Rat pancreatic acinar carcinoma expressing the SST-2 receptor (CA20948) was induced by solid implant technique in the left flank area, and palpable masses were detected nine days post implant. The images obtained at 2 and 30 minutes post injection are shown in FIG. 7E-F. FIGS. 7E-F are images of a rat with an induced pancreatic acinar carcinoma (CA20948) expressing the SST-2 receptor imaged at two minutes (FIG. 7E) and 30 minutes (FIG. 7F) post injection.
The imaging apparatus and the procedure used are described in Example 12, except that each animal received 500 μL of a 1.0 mg/mL solution of Cytate 1 solution of 25% dimethylsulfoxide in water.
Rat pancreatic acinar carcinoma expressing the SST-2 receptor (CA20948) were induced by solid implant technique in the left flank area, and palpable masses were detected 24 days post implant. Images were obtained at various times post injection.
as §1

[4] = tested on: Pancreatic Ductal Adenocarcinoma (DSL 6A); assay: In vivo fluorescence imaging of pancreatic ductal adenocarcinoma (DSL 6A) tumors; design: species or system rat
Source text: as §2
DSL 6A tumors were induced in male Lewis rats in the left flank area by the introduction of material from a solid (donor) implant, and the tumors were palpable in approximately 14 days. The animals were anesthetized with xylazine:ketamine:acepromazine, 1.5:1.5:0.5 at 0.8 mL/kg via intramuscular injection. The area of the tumor (left flank) was shaved to expose the tumor and the surrounding surface area. […]

[5] = tested on: Prostatic Carcinoma (Dunning R3327-H); assay: In vivo fluorescence imaging of prostatic carcinoma (R3327-H) tumors; design: species or system rat
Source text: as §2
The imaging apparatus and the procedure used are described as in Example 12. Prostate tumors (Dunning R3327-H) were induced in young male Copenhagen rats in the left flank area from a solid implant. These tumors grow very slowly and palpable masses were present 4-5 months post implant. FIGS. 7C-D are images of a rat with an induced prostatic carcinoma tumor (R3327-H) imaged at two minutes (FIG. 7C) and 30 minutes (FIG. 7D) post injection.

SMILES: C[C@@H](O)[C@H](NC(=O)[C@@H]1CSSC[C@H](NC(=O)[C@@H](Cc2ccccc2)NC(=O)CCN2C(=CC=CC=CC=CC3=[N+](CCC(=O)N[C@H](Cc4ccccc4)C(=O)N[C@H]4CSSC[C@@H](C(=O)N[C@H](C(=O)O)[C@@H](C)O)NC(=O)[C@H]([C@@H](C)O)NC(=O)[C@H](CCCCN)NC(=O)[C@@H](Cc5c[nH]c6ccccc56)NC(=O)[C@H](Cc5ccc(O)cc5)NC4=O)c4ccc5ccccc5c4C3(C)C)C(C)(C)c3c2ccc2ccccc32)C(=O)N[C@@H](Cc2ccc(O)cc2)C(=O)N[C@H](Cc2c[nH]c3ccccc23)C(=O)N[C@@H](CCCCN)C(=O)N[C@@H]([C@@H](C)O)C(=O)N1)C(=O)O [Cytate 2, bis Octreotate-Bisethylcarboxymethylindocyanine dye]
- blood fluorescence signal after bolus injection (rise) [1]: rapidly increased to a peak value
- blood fluorescence signal after peak (clearance from the bloodstream) [1]: decayed as a function of time

SMILES: C[C@@H](O)[C@H](NC(=O)[C@@H]1CSSC[C@H](NC(=O)[C@@H](Cc2ccccc2)NC(=O)CCN2C(=CC=CC=CC=CC3=[N+](CCC(=O)O)c4ccc5ccccc5c4C3(C)C)C(C)(C)c3c2ccc2ccccc32)C(=O)N[C@@H](Cc2ccc(O)cc2)C(=O)N[C@H](Cc2c[nH]c3ccccc23)C(=O)N[C@@H](CCCCN)C(=O)N[C@@H]([C@@H](C)O)C(=O)N1)C(=O)O [Cytate 1, monoOctreotate-Bisethylcarboxymethylindocyanine dye]
- uptake in adrenals ([2]; removed organ imaged): High uptake
- uptake in heart ([2]; removed organ imaged): significantly lower uptake
- uptake in liver ([2]; removed organ imaged): significantly lower uptake
- uptake in pancreas ([2]; removed organ imaged): High uptake
- uptake in spleen ([2]; removed organ imaged): significantly lower uptake
- uptake in muscle ([2]; removed tissue imaged): significantly lower uptake
- uptake in tumor tissue ([2]; removed tissue imaged): High uptake
- uptake (fluorescence) in tumor at 45 minutes [3]: still intense
- localization of dye in the tumor ([3]; 90 minutes post injection, CA20948 Lewis rat model): strong localization
- tumor visualization ([3]; 19 hours post injection, CA20948 Lewis rat model): easily observed
- time of maximal uptake into the tumor ([3]; CA20948 tumor, 500 μL of 1.0 mg/mL in 25% dimethylsulfoxide in water): about five
- persistence of dye fluorescence in the tumor ([3]; CA20948 tumor, post-injection): remained intense in the tumor for several hours
- blood fluorescence signal after bolus injection (rise) [1]: rapidly increased to a peak value
- blood fluorescence signal after peak (clearance from the bloodstream) [1]: decayed as a function of time

SMILES: CC1(C)C(/C=C/C=C/C=C/C=C2\N(CCCCS(=O)(=O)O)c3ccc4ccccc4c3C2(C)C)=[N+](CCCCS(=O)(=O)[O-])c2ccc3ccccc3c21 [ICG, indocyanine green, reference compound]
- dye intensity in the tumor ([4]; 30 minutes post-ICG injection vs 2 minutes, DSL 6A tumor, male Lewis rats, 500 μL of 0.42 mg/mL in water, tail vein): considerably diminished
- perfusion of the agent into the tumor ([4]; DSL 6/A (pancreatic) tumor line, CCD camera): slow perfusion of the agent over time into the tumor
- dye intensity in the tumor ([3]; 30 minutes post-ICG injection vs 2 minutes, CA20948 tumor): considerably diminished and almost absent
- uptake (fluorescence) in tumor at 45 minutes [3]: mostly cleared
- perfusion of the agent into the tumor ([3]; CA20948 (pancreatic) tumor line, absent after 30 minutes post injection): slight but transient perfusion
- non-specific localization into the tumor line ([3]; CA20948, compared to the other two tumor lines): no non-specific localization
- dye intensity in the tumor ([5]; 30 minutes post-ICG injection vs 2 minutes, R3327-H tumor, male Copenhagen rats): considerably diminished
- perfusion of the agent into the tumor ([5]; Dunning R3327H (prostate) tumor line, CCD camera): slow perfusion of the agent over time into the tumor
